# In publication PMC3750913 (BMC Microbiology, 2013):
# How the values were obtained:
# HCMV [1] = assay: Viral inactivation assay; format: cell-based, human cytomegalovirus; details: HCMV, HEL cells; CHLA 60 μM, PUG 40 μM, Heparin 30 μg/ml
# DENV-2 [2] = assay: Viral inactivation assay; format: cell-based, dengue virus type 2; details: DENV-2, Vero cells; CHLA 25 μM, PUG 25 μM, Heparin 200 μg/ml
# RSV [3] = assay: Viral inactivation assay; format: cell-based, respiratory syncytial virus; details: RSV, HEp-2 cells; CHLA 1 μM, PUG 2 μM, Heparin 1 μg/ml
# HCMV [4] = assay: Viral attachment assay, method 1 (host cell infection); format: cell-based, human cytomegalovirus; details: HCMV, HEL cells, 4°C; CHLA 60 μM, PUG 40 μM, Heparin 30 μg/ml
# HCV [5] = assay: as above; format: cell-based, hepatitis C virus; details: HCV, Huh-7.5 cells, 4°C; CHLA 50 μM, PUG 50 μM, Heparin 1000 μg/ml
# DENV-2 [6] = assay: as above; format: cell-based, dengue virus type 2; details: DENV-2, Vero cells, 4°C; CHLA 25 μM, PUG 25 μM, Heparin 200 μg/ml
# MV [7] = assay: as above; format: cell-based, measles virus; details: MV, CHO-SLAM cells, 4°C; CHLA 90 μM, PUG 50 μM, Heparin 10 μg/ml
# RSV [8] = assay: as above; format: cell-based, respiratory syncytial virus; details: RSV, HEp-2 cells, 4°C; CHLA 1 μM, PUG 2 μM, Heparin 1 μg/ml
# HCMV [9] = assay: Viral attachment assay, method 2 (virus-specific cellular ELISA); format: cell-based, human cytomegalovirus; details: HCMV MOI 5, ELISA, 4°C; highest inhibitory concentration of the compounds
# HCV [10] = assay: as above; format: cell-based, hepatitis C virus; details: HCV MOI 0.1, ELISA, 4°C; highest inhibitory concentration of the compounds
# DENV-2 [11] = assay: as above; format: cell-based, dengue virus type 2; details: DENV-2 MOI 5, ELISA, 4°C; highest inhibitory concentration of the compounds
# RSV [12] = assay: as above; format: cell-based, respiratory syncytial virus; details: RSV MOI 5, ELISA, 4°C; highest inhibitory concentration of the compounds
# HCMV [13] = assay: Viral penetration assay; format: cell-based, human cytomegalovirus; details: HCMV
# HCV [14] = assay: Viral penetration assay; format: cell-based, hepatitis C virus; details: HCV
# DENV-2 [15] = assay: Viral penetration assay; format: cell-based, dengue virus type 2; details: DENV-2, Vero cells; CHLA 25 μM, PUG 25 μM, Heparin 200 μg/ml
# MV [16] = assay: Viral penetration assay; format: cell-based, measles virus; details: MV
# HCMV [17] = assay: Analysis of drug effects post viral entry; format: cell-based, human cytomegalovirus; details: HCMV, HEL cells; CHLA 60 μM, PUG 40 μM, Heparin 30 μg/ml
# HCV [18] = assay: Analysis of drug effects post viral entry; format: cell-based, hepatitis C virus; details: HCV, Huh-7.5 cells; CHLA 50 μM, PUG 50 μM, Heparin 1000 μg/ml
# DENV-2 [19] = assay: Analysis of drug effects post viral entry; format: cell-based, dengue virus type 2; details: DENV-2, Vero cells; CHLA 25 μM, PUG 25 μM, Heparin 200 μg/ml
# MV [20] = assay: Analysis of drug effects post viral entry; format: cell-based, measles virus; details: MV, CHO-SLAM cells; CHLA 90 μM, PUG 50 μM, Heparin 10 μg/ml
# RSV [21] = assay: Analysis of drug effects post viral entry; format: cell-based, respiratory syncytial virus; details: RSV, HEp-2 cells; CHLA 1 μM, PUG 2 μM, Heparin 1 μg/ml
# HCMV [22] = assay: Viral cell-to-cell spread assay; format: cell-based, human cytomegalovirus; details: HCMV
# HCV [23] = assay: Viral cell-to-cell spread assay; format: cell-based, hepatitis C virus; details: HCV
# Description: (A) Schematic of the experiment (left) with the virus concentration (PFU/well) and step-wise incubation periods (i, ii, iii) indicated for each virus in the table on the right. Virus infections were established (i) in the different cell types by direct inoculation (HCMV, DENV-2, MV, and RSV) or electroporation of viral RNA (HCV; *), and the cell monolayers were washed with citrate buffer or PBS before being covered with an overlay medium that prevents secondary infection. Initial virus plaques were allowed to form in the subsequent infections (ii), and then the test compounds were added to the overlay medium for an additional time of incubation (iii) before analysis of viral plaque size by immune fluorescence microscopy. Five random virus-positive plaques at the endpoint of the experiment were evaluated for each treatment group of viruses, and the data was plotted as “fold change of plaque area” against the size of the initial viral plaques formed prior to test compound treatment. Analyses for (B) HCMV, (C) HCV, (D) DENV-2, (E) MV, and (F) RSV are indicated in each additional panel. The S29 cell line and the FIP inhibitor were included as controls for HCV and MV, respectively. Results shown are means ± SEM from three independent experiments and representative micrographs of the evaluated plaques are provided in Additional file 1 Figure S1, Additional file 2 Figure S2, Additional file 3 Figure S3, Additional file 4 Figure S4 and Additional file 5 Figure S5. See text for details.
# The examination of HCV spread is based on previously described protocol with some modifications. Huh-7.5 cells were electroporated with HCV Jc1FLAG2(p7-nsGluc2A) RNA (10 μg) as described above to establish random productive infections in the cell population, and then mixed with naïve cells at a ratio of 1:1 before seeding in 12-well plates. […] Medium was changed 24 h post-electroporation with an overlay medium containing the test drugs or control and 0.5% methylcellulose, and the plates were further incubated for 5 days before analysis of HCV-positive foci through immunostaining.
# For immunofluorescence analysis of viral plaque size due to spread, the overlay media were removed and the wells were fixed with ice-cold methanol before blocking with 3% BSA. Samples were then treated at 37°C for 1 h with the respective mouse monoclonal primary antibodies diluted in PBS containing 3% BSA: anti-HCMV gB antibody (1:1,000), anti-NS5A 9E10 antibody for HCV (1:25,000), anti-flavivirus group antibody (1:400) for DENV-2, and anti-RSV fusion protein antibody (1:1,000). After incubation, the wells were washed with PBS three times before applying Alexa Fluor 488 goat anti-mouse IgG (H + L) antibody (Invitrogen), diluted at 1:1,000 (HCMV and RSV) or 1:400 (DENV-2 and HCV) in PBS containing 3% BSA. Following incubation at 37°C for 1 h, the samples were washed with PBS three times prior to visualization by fluorescence microscopy. The fluorescence expression of MV-EGFP could be readily detected without addition of antibodies. Photomicrographs were taken at × 100 magnification (Leica Microsystems; Wetzlar, Germany) and viral plaque sizes were then analyzed with MetaMorph software (Molecular Devices; Sunnyvale, CA, USA). In the case of HCV, cellular nuclei were stained with Hoechst dye (Sigma) prior to visualization and the number of cells in the virus-positive foci was determined. For all virus tested, a total of five random virus-positive plaques were evaluated for each treatment group per independent experiment. Comparison was made between viral plaques stained prior to drug addition and those at the endpoint of the experiment, and the data were plotted as “fold change of plaque area”.
# DENV-2 [24] = assay: Viral cell-to-cell spread assay; format: cell-based, dengue virus type 2
# MV [25] = assay: Viral cell-to-cell spread assay; format: cell-based, measles virus; details: MV
# RSV [26] = assay: Viral cell-to-cell spread assay; format: cell-based, respiratory syncytial virus; details: RSV
# ADV-5 = system: ADV-5; parameters: method as in PMID 16894186, PMID 10704346; details: HS-mediated entry; ref [51], [52]; cited from earlier work
# [27] = HEL cells, CHLA 60 μM, PUG 40 μM, Heparin 30 μg/ml
# [28] = Huh-7.5 cells, CHLA 50 μM, PUG 50 μM, Heparin 1000 μg/ml
# [29] = CHO-SLAM cells, CHLA 90 μM, PUG 50 μM, Heparin 10 μg/ml
substance,measurement,setting,value
Heparin [reference compound],"Window of antiviral effects: Free particle, inhibitory effect relative to DMSO control",HCMV [1],+ (+ 25–50%)
same,"Window of antiviral effects: Free particle, inhibitory effect relative to DMSO control",DENV-2 [2],++ (++ 50–75%)
same,"Window of antiviral effects: Free particle, inhibitory effect relative to DMSO control",RSV [3],+ (+ 25–50%)
same,"Window of antiviral effects: Attachment Method 1, inhibitory effect relative to DMSO control",HCMV [4],++ (++ 50–75%)
same,"Window of antiviral effects: Attachment Method 1, inhibitory effect relative to DMSO control",HCV [5],+ (+ 25–50%)
same,"Window of antiviral effects: Attachment Method 1, inhibitory effect relative to DMSO control",DENV-2 [6],+++ (+++ > 75%)
same,"Window of antiviral effects: Attachment Method 1, inhibitory effect relative to DMSO control",MV [7],+++ (+++ > 75%)
same,"Window of antiviral effects: Attachment Method 1, inhibitory effect relative to DMSO control",RSV [8],+++ (+++ > 75%)
same,"Window of antiviral effects: Attachment Method 2, inhibitory effect relative to DMSO control",HCMV [9],+++ (+++ > 75%)
same,"Window of antiviral effects: Attachment Method 2, inhibitory effect relative to DMSO control",HCV [10],+++ (+++ > 75%)
same,"Window of antiviral effects: Attachment Method 2, inhibitory effect relative to DMSO control",DENV-2 [11],+++ (+++ > 75%)
same,"Window of antiviral effects: Attachment Method 2, inhibitory effect relative to DMSO control",RSV [12],++ (++ 50–75%)
same,"Window of antiviral effects: Penetration, inhibitory effect relative to DMSO control",HCMV [13]; [27],+ (+ 25–50%)
same,protection of the host cell from infection during virus penetration,"HCMV [13]; shift 4°C to 37°C, Figure 4",< 40%
same,"Window of antiviral effects: Penetration, inhibitory effect relative to DMSO control",HCV [14]; [28],- (- < 25%)
same,protection of the host cell from infection during virus penetration,"HCV [14]; shift 4°C to 37°C, Figure 4",< 40%
same,"Window of antiviral effects: Penetration, inhibitory effect relative to DMSO control",DENV-2 [15],++ (++ 50–75%)
same,"Window of antiviral effects: Penetration, inhibitory effect relative to DMSO control",MV [16]; [29],+ (+ 25–50%)
same,protection of the host cell from infection during virus penetration,"MV [16]; shift 4°C to 37°C, Figure 4",< 40%
same,"Window of antiviral effects: Post-infection, inhibitory effect relative to DMSO control",HCMV [17],- (- < 25%)
same,"Window of antiviral effects: Post-infection, inhibitory effect relative to DMSO control",HCV [18],+ (+ 25–50%)
same,"Window of antiviral effects: Post-infection, inhibitory effect relative to DMSO control",DENV-2 [19],- (- < 25%)
same,"Window of antiviral effects: Post-infection, inhibitory effect relative to DMSO control",MV [20],- (- < 25%)
same,"Window of antiviral effects: Post-infection, inhibitory effect relative to DMSO control",RSV [21],- (- < 25%)
same,"Window of antiviral effects: Cell-to-cell spread, inhibitory effect relative to DMSO control",HCMV [22]; [27],- (- < 25%)
same,effect on viral plaque size (cell-to-cell spread),HCMV [22]; Figure 7,limited effect
same,"Window of antiviral effects: Cell-to-cell spread, inhibitory effect relative to DMSO control",HCV [23]; [28],- (- < 25%)
same,effect on viral plaque size (cell-to-cell spread),HCV [23]; Figure 7,limited effect
same,"Window of antiviral effects: Cell-to-cell spread, inhibitory effect relative to DMSO control","DENV-2 [24]; DENV-2, Vero cells, CHLA 25 μM, PUG 25 μM, Heparin 200 μg/ml",- (- < 25%)
same,effect on viral plaque size (cell-to-cell spread),"DENV-2 [24]; DENV-2, Figure 7",limited effect
same,"Window of antiviral effects: Cell-to-cell spread, inhibitory effect relative to DMSO control",MV [25]; [29],- (- < 25%)
same,effect on viral plaque size (cell-to-cell spread),MV [25]; Figure 7,limited effect
same,"Window of antiviral effects: Cell-to-cell spread, inhibitory effect relative to DMSO control","RSV [26]; HEp-2 cells, CHLA 1 μM, PUG 2 μM, Heparin 1 μg/ml",- (- < 25%)
same,effect on viral plaque size (cell-to-cell spread),RSV [26]; Figure 7,limited effect
same,maximum inhibition of ADV-5 by soluble heparin,ADV-5,≤ 50%
